Each molecule was assayed against T1, AR (Homo sapiens, UniProt P10275, T878A) (assay: Effects of compounds on AR expression in LNCaP cells (ELISA, DC50)). Settings: 24 hours of drug treatment, AR by ELISA.
T1 sequence (P10275 1-920 T878A): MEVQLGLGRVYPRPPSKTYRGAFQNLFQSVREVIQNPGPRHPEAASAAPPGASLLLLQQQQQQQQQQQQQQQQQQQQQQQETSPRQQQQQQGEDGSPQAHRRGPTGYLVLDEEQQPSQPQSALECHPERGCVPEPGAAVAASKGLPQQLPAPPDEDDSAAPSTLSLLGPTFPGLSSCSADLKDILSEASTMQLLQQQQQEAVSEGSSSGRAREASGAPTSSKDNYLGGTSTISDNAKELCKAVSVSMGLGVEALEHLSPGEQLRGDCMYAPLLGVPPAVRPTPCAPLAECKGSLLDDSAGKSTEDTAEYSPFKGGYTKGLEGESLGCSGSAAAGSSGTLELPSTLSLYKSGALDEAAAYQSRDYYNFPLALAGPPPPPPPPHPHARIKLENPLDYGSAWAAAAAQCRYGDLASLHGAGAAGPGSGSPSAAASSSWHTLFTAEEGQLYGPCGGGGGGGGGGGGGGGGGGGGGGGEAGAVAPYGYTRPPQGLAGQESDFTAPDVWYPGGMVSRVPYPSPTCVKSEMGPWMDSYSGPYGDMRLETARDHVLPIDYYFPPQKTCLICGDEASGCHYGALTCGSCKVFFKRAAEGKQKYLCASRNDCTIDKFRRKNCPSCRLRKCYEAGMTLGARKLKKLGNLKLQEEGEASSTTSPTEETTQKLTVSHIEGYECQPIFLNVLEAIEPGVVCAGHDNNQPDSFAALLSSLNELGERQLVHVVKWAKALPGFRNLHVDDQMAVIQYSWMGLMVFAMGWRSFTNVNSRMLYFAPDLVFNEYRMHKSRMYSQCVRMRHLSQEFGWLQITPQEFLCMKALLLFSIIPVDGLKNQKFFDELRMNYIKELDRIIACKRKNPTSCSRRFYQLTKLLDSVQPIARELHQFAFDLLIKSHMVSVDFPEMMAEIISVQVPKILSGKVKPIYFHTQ
Format: cell-based
Set-up: Measurement of the Effects of Drugs on the Expression of AR in Cells by ELISA Method; endogenous in cells; host or cells: LNCaP
Description: Activity Assay Example 1: Effects of Compounds on AR Expression in LNCaP Cells
1. Cell Line and Cell Culture
Human prostate cancer cells LNCaP (Shanghai Chinese Academy of Sciences Cell Bank). LNCaP was cultured in 1640 medium containing 10% fetal bovine serum. The cells grow in clusters, with weak adhesion to the bottom of the culture flask, slow proliferation, with a multiplication time of 72 h. The cells are closely adhered to each other and need to be digested with 0.05% trypsin containing 0.025% EDTA. The cells were passaged every 3 days. The cells were cultured at 37° C. and 5% CO2 in a humidified incubator
2. Cell plating: The supernatant was discarded, and the Lncap cells in the logarithmic growth phase were taken, washed with PBS once, and added with appropriate 0.05% trypsin digestion solution to be fully digested into single cell suspension, and centrifuged, resuspended and counted to make the number of cells about 15,000 per well, then inoculated in a 96-well plate, placed at 37° C., 5% CO2 and cultured overnight for 24 h.
3. Preparation and Addition of Compound Solutions
About 2 mg of each compound was weighed and dissolved in DMSO to make the stock solution with a concentration of 10 mmol/L. Dilution process (final concentration dilution: 2, 0.667, 0.222, 0.074, 0.0245, 0.008, 0.003, 0.001, 0.0003, 0.0001 μmol/L): 10 centrifuge tubes with a volume of 1.5 mL were taken and numbered 1, 2, 3, 4, 5, 6, 7, 8, 9, and 10, 80 μL DMSO was added to tube No. 1, and 60 μL DMSO was added to tubes No. 2 to No. 10, 20 μL of the stock solution was pipetted to tube No. 1 and mixed well; 30 μL was pipetted from tube No. 1 into tube No. 2 and mixed well. 30 μL was pipetted from tube No. 2 into tube No. 3 and mixed well, and so forth, to obtain samples No. 4-10, and to obtain working solutions of compounds of different concentrations respectively. 2 μL was pipetted from the above-mentioned tubes No. 1-10 into each corresponding sterile deep-well plates, added with 198 μL of culture medium, and mixed well. 11 ul was added to each well of the 96-well cell plate cultured overnight to obtain the corresponding desired concentrations (2, 0.667, 0.222, 0.074, 0.0245, 0.008, 0.003, 0.001, 0.0003, 0.0001 μmol/L).
4. Measurement of the Effects of Drugs on the Expression of AR in Cells by ELISA Method
After 24 hours of drug treatment, the supernatant was removed, and 200 μL of PBS was added to wash cells, and then the supernatant was removed, and 100 μL of cell lysate was added to lyse cells on ice for 20 min, then the cell lysate was centrifuged at 4000 rpm for 20 min at 4° C. and the supernatant was taken for later use. The measurement steps of the supernatant were according to the ELISA kit instructions:
4.1 The slats required for the test were taken out from the sealed bag that has been equilibrated to room temperature. Please put the unused slats and desiccant back into the aluminum foil bag and compress the self-sealing strip, seal the bag, and store at 4° C.
4.2 Standards and sample diluents were added to blank wells, and different concentrations of standards (10 ul/well) and sample diluents (90 ul/well) were added to the remaining corresponding wells, and the reaction wells were sealed with sealing tape, and refrigerated at 4° C. overnight.
4.3 Primary antibody was diluted with dilution buffer to the corresponding concentration and added to each well in 100 ul/well. The reaction wells were sealed with sealing tape and incubated at 37° C. for 60 min.
4.4 Secondary antibody was diluted with dilution buffer to the corresponding concentration and added to each well in 100 ul/well. The reaction wells were sealed with sealing tape and incubated at 37° C. for 30 min.
4.5 The reaction wells were added with 100 ul/well of substrate (TMB) and incubated at room temperature for 30 min.
4.6 The reaction wells were added with 100 ul/well of stop solution, mixed well and then the OD450 value was measured with a microplate reader. […]

Structure (SMILES)	DC50 [nM]
CC(C)(C)[C@H](NC(=O)COCCCCOc1ccc(-c2ncc(N3C(=S)N(c4ccc(C#N)c(C(F)(F)F)c4F)C(=O)C3(C)C)cc2F)cc1F)C(=O)N1C[C@H](O)C[C@H]1C(=O)NCc1ccccc1 [Compound A120]	216
CC(C)(C)[C@H](NC(=O)COCCCCOc1ccc(-c2ccc(N3C(=S)N(c4ccc(C#N)c(C(F)(F)F)c4F)C(=O)C3(C)C)cn2)cc1C(F)(F)F)C(=O)N1C[C@H](O)C[C@H]1C(=O)NCc1ccc(C(N)=O)cc1 [Compound A121]	336
CC(C)(C)[C@H](NC(=O)COCCCCOc1ccc(-c2ccc(N3C(=S)N(c4ccc(C#N)c(C(F)(F)F)c4F)C(=O)C3(C)C)cn2)cc1C(F)(F)F)C(=O)N1C[C@H](O)C[C@H]1C(=O)NCc1ccccc1 [Compound A122]	155
Cc1ncsc1-c1ccc(CNC(=O)[C@@H]2C[C@@H](O)CN2C(=O)[C@@H](NC(=O)CCCCCC#Cc2ncc(N3C(=S)N(c4ccc(C#N)c(C(F)(F)F)c4F)C(=O)C3(C)C)cc2F)C(C)(C)C)cc1 [Compound A125]	> 2000
CC(C)(C)[C@H](NC(=O)COCCCCOc1ccc(-c2ccc(N3C(=S)N(c4ccc(C#N)c(C(F)(F)F)c4F)C(=O)C3(C)C)cn2)cn1)C(=O)N1C[C@H](O)C[C@H]1C(=O)NCc1ccc(C(N)=O)cc1 [Compound A127]	89.3
CC(C)(C)[C@H](NC(=O)COCCCCOc1ccc(-c2ccc(N3C(=S)N(c4ccc(C#N)c(C(F)(F)F)c4F)C(=O)C3(C)C)cn2)cn1)C(=O)N1C[C@H](O)C[C@H]1C(=O)NCc1ccccc1 [Compound A128]	124
CC(C)(C)[C@H](NC(=O)COCCOc1ccc(-c2ncc(N3C(=S)N(c4ccc(C#N)c(C(F)(F)F)c4F)C(=O)C3(C)C)cc2F)cc1F)C(=O)N1C[C@H](O)C[C@H]1C(=O)NCc1ccc(C(N)=O)cc1 [Compound A129]	67.9
CC(C)(C)[C@H](NC(=O)COCCOc1ccc(-c2ncc(N3C(=S)N(c4ccc(C#N)c(C(F)(F)F)c4F)C(=O)C3(C)C)cc2F)cc1F)C(=O)N1C[C@H](O)C[C@H]1C(=O)NCc1ccccc1 [Compound A130]	131
CC(C)(C)[C@H](NC(=O)COCCCCOc1ccc(-c2ncc(N3C(=S)N(c4ccc(C#N)c(C(F)(F)F)c4F)C(=O)C3(C)C)cc2F)c(C(F)(F)F)c1)C(=O)N1C[C@H](O)C[C@H]1C(=O)NCc1ccc(C(N)=O)cc1 [Compound A131]	34.8
CC(C)(C)[C@H](NC(=O)COCCCCOc1ccc(-c2ncc(N3C(=S)N(c4ccc(C#N)c(C(F)(F)F)c4F)C(=O)C3(C)C)cc2F)c(C(F)(F)F)c1)C(=O)N1C[C@H](O)C[C@H]1C(=O)NCc1ccccc1 [Compound A132]	161
Cc1ncsc1-c1ccc(CNC(=O)[C@@H]2C[C@@H](O)CN2C(=O)[C@@H](NC(=O)COCCCCN2CC=C(c3ccc(N4C(=S)N(c5ccc(C#N)c(C(F)(F)F)c5F)C(=O)C4(C)C)cn3)CC2)C(C)(C)C)cc1 [Compound A135]	1540
Cc1ncsc1-c1ccc(CNC(=O)[C@@H]2C[C@@H](O)CN2C(=O)[C@@H](NC(=O)[C@H]2CC[C@H](CNC(=O)CCCc3ccc(N4C(=S)N(c5ccc(C#N)c(C(F)(F)F)c5F)C(=O)C4(C)C)cn3)CC2)C(C)(C)C)cc1 [Compound A140]	1500
Cc1ncsc1-c1ccc(CNC(=O)[C@@H]2C[C@@H](O)CN2C(=O)[C@@H](NC(=O)COCCCCN2CCC(c3ccc(N4C(=S)N(c5ccc(C#N)c(C(F)(F)F)c5F)C(=O)C4(C)C)cn3)CC2)C(C)(C)C)cc1 [Compound A141]	> 2000
Cc1ncsc1-c1ccc(CNC(=O)[C@@H]2C[C@@H](O)CN2C(=O)[C@@H]2CCCN2C(=O)COCCCCOc2ccc(-c3ncc(N4C(=S)N(c5ccc(C#N)c(C(F)(F)F)c5F)C(=O)C4(C)C)cc3F)cc2F)cc1 [Compound A142]	> 2000
Cc1ncsc1-c1ccc([C@H](C)NC(=O)[C@@H]2C[C@@H](O)CN2C(=O)[C@@H](NC(=O)COCC(F)C(F)COc2c(F)cc(-c3ncc(N4C(=S)N(c5ccc(C#N)c(C(F)(F)F)c5F)C(=O)C4(C)C)cc3F)cc2F)C(C)(C)C)cc1 (stereo partly shown) [Compound A144]	635
CC(=O)O[C@@H]1C[C@@H](C(=O)NCc2ccc(-c3scnc3C)cc2)N(C(=O)[C@@H](NC(=O)COCCCCOc2ccc(-c3ncc(N4C(=S)N(c5ccc(C#N)c(C(F)(F)F)c5F)C(=O)C4(C)C)cc3F)c(C(F)(F)F)c2)C(C)(C)C)C1 [Compound A146]	259
Cc1ncsc1-c1ccc(CNC(=O)[C@@H]2C[C@@H](O)CN2C(=O)[C@@H](NC(=O)COCCC(F)COc2ccc(-c3ncc(N4C(=S)N(c5ccc(C#N)c(C(F)(F)F)c5F)C(=O)C4(C)C)cc3F)cc2F)C(C)(C)C)cc1 (stereo partly shown) [Compound A147]	84.9
Cc1ncsc1-c1ccc([C@H](C)NC(=O)[C@@H]2C[C@@H](O)CN2C(=O)[C@@H](NC(=O)COCCC(F)COc2c(F)cc(-c3ncc(N4C(=S)N(c5ccc(C#N)c(C(F)(F)F)c5F)C(=O)C4(C)C)cc3F)cc2F)C(C)(C)C)cc1 (stereo partly shown) [Compound A149]	111
Cc1ncsc1-c1ccc(CNC(=O)[C@@H]2C[C@@H](O)CN2C(=O)[C@@H](NC(=O)COCC(F)C(F)COc2ccc(-c3ncc(N4C(=S)N(c5ccc(C#N)c(C(F)(F)F)c5F)C(=O)C4(C)C)cc3F)cc2F)C(C)(C)C)cc1 (stereo partly shown) [Compound A150]	90.6
CC(=O)O[C@@H]1C[C@@H](C(=O)NCc2ccc(-c3scnc3C)cc2)N(C(=O)[C@@H](NC(=O)COCCCCOc2c(F)cc(-c3ncc(N4C(=S)N(c5ccc(C#N)c(C(F)(F)F)c5F)C(=O)C4(C)C)cc3F)cc2F)C(C)(C)C)C1 [Compound A152]	167
Cc1ncsc1-c1ccc(CNC(=O)[C@@H]2C[C@@H](O)CN2C(=O)[C@@H](NC(=O)COCC(F)C(F)COc2ccc(-c3ncc(N4C(=S)N(c5ccc(C#N)c(C(F)(F)F)c5F)C(=O)C4(C)C)cc3F)c(C(F)(F)F)c2)C(C)(C)C)cc1 (stereo partly shown) [Compound A154]	37.6
Cc1ncsc1-c1ccc(CNC(=O)[C@@H]2C[C@@H](O)CN2C(=O)[C@@H](NC(=O)COCC(F)CCOc2ccc(-c3ncc(N4C(=S)N(c5ccc(C#N)c(C(F)(F)F)c5F)C(=O)C4(C)C)cc3F)cc2F)C(C)(C)C)cc1 (stereo partly shown) [Compound A159]	168
